As usually defined, the EC50 is the concentration giving half of the maximal effect.

Numbering of substitutions follows the chain as printed.

Here are results for one molecule from paper PMC3735612, “Functional Identification of Close Proximity Amino Acid Side Chains within the Transmembrane-Spanning Helixes of the P2X2 Receptor” (PLoS ONE, 2013).

Holding throughout (experiment): perforated-patch whole-cell voltage clamp, peak ATP-gated current, Hill fit
Format in all cases: cell-based

Assay [1] deals with T1, rP2X2R (rP2X2R-WT; rP2X2R-T for the C348T background) (Rattus norvegicus, UniProt P49653, C348T/F44C).
T1 construct: gene P2rx2; full-length, C-terminal FLAG tag (DYKDDDDK), transiently expressed in HEK293 cells with EGFP; homotrimer; monomer about 62 kDa on SDS-PAGE; all point mutants made on the C348T (rP2X2R-T) background
T1 sequence (P49653 1-472 F44C/C348T): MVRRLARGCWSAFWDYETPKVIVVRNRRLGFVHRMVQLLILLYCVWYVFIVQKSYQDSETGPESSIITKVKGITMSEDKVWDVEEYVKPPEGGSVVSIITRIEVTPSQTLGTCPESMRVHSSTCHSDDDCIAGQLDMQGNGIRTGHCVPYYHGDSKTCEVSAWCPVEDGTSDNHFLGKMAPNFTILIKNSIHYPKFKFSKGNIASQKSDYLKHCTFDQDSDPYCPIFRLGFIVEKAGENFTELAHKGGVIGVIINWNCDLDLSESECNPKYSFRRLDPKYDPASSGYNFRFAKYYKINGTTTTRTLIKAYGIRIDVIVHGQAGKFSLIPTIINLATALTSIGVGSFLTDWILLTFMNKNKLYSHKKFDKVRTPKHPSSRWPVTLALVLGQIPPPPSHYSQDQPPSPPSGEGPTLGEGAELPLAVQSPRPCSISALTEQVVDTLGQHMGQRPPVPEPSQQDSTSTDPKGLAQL
An excerpt: (§1) perforated-patch whole-cell voltage clamp, peak ATP-gated current, Hill fit on rP2X2R (rP2X2R-WT; rP2X2R-T for the C348T background)

For assay [2], the target named is T2, rP2X2R (rP2X2R-WT; rP2X2R-T for the C348T background) (Rattus norvegicus, UniProt P49653, C348T/H33A).
T2 construct: gene P2rx2; full-length, C-terminal FLAG tag (DYKDDDDK), transiently expressed in HEK293 cells with EGFP; homotrimer; monomer about 62 kDa on SDS-PAGE; all point mutants made on the C348T (rP2X2R-T) background
T2 sequence (P49653 1-472 H33A/C348T): T1 sequence (P49653 1-472 F44C/C348T) with H33A, C44F
Source text: as §1

The target in assay [3] is T3, rP2X2R (rP2X2R-WT; rP2X2R-T for the C348T background) (Rattus norvegicus, UniProt P49653, C348T/H33A/S345A).
T3 construct: gene P2rx2; full-length, C-terminal FLAG tag (DYKDDDDK), transiently expressed in HEK293 cells with EGFP; homotrimer; monomer about 62 kDa on SDS-PAGE; all point mutants made on the C348T (rP2X2R-T) background
T3 sequence (P49653 1-472 H33A/S345A/C348T): T1 sequence (P49653 1-472 F44C/C348T) with H33A, C44F, S345A
Source text: as §1

Assay [4] deals with T4, rP2X2R (rP2X2R-WT; rP2X2R-T for the C348T background) (Rattus norvegicus, UniProt P49653, C348T/H33C).
T4 construct: gene P2rx2; full-length, C-terminal FLAG tag (DYKDDDDK), transiently expressed in HEK293 cells with EGFP; homotrimer; monomer about 62 kDa on SDS-PAGE; all point mutants made on the C348T (rP2X2R-T) background
T4 sequence (P49653 1-472 H33C/C348T): T1 sequence (P49653 1-472 F44C/C348T) with H33C, C44F
Source text: as §1

Assay [5] addresses T5, rP2X2R (rP2X2R-WT; rP2X2R-T for the C348T background) (Rattus norvegicus, UniProt P49653, C348T/H33C/S345C).
T5 construct: gene P2rx2; full-length, C-terminal FLAG tag (DYKDDDDK), transiently expressed in HEK293 cells with EGFP; homotrimer; monomer about 62 kDa on SDS-PAGE; all point mutants made on the C348T (rP2X2R-T) background
T5 sequence (P49653 1-472 H33C/S345C/C348T): T1 sequence (P49653 1-472 F44C/C348T) with H33C, C44F, S345C
Source text: as §1

Assay [6] has as its target T6, rP2X2R (rP2X2R-WT; rP2X2R-T for the C348T background) (Rattus norvegicus, UniProt P49653, C348T/I328A).
T6 construct: gene P2rx2; full-length, C-terminal FLAG tag (DYKDDDDK), transiently expressed in HEK293 cells with EGFP; homotrimer; monomer about 62 kDa on SDS-PAGE; all point mutants made on the C348T (rP2X2R-T) background
T6 sequence (P49653 1-472 I328A/C348T): T1 sequence (P49653 1-472 F44C/C348T) with C44F, I328A
Source text: as §1

The target in assay [7] is T7, rP2X2R (rP2X2R-WT; rP2X2R-T for the C348T background) (Rattus norvegicus, UniProt P49653, C348T/I328C/V48C).
T7 construct: gene P2rx2; full-length, C-terminal FLAG tag (DYKDDDDK), transiently expressed in HEK293 cells with EGFP; homotrimer; monomer about 62 kDa on SDS-PAGE; all point mutants made on the C348T (rP2X2R-T) background
T7 sequence (P49653 1-472 V48C/I328C/C348T): T1 sequence (P49653 1-472 F44C/C348T) with C44F, V48C, I328C
Source text: as §1

Assay [8] addresses T8, rP2X2R (rP2X2R-WT; rP2X2R-T for the C348T background) (Rattus norvegicus, UniProt P49653, C348T/S345A).
T8 construct: gene P2rx2; full-length, C-terminal FLAG tag (DYKDDDDK), transiently expressed in HEK293 cells with EGFP; homotrimer; monomer about 62 kDa on SDS-PAGE; all point mutants made on the C348T (rP2X2R-T) background
T8 sequence (P49653 1-472 S345A/C348T): T1 sequence (P49653 1-472 F44C/C348T) with C44F, S345A
Source text: as §1

For assay [9], the target named is T9, rP2X2R (rP2X2R-WT; rP2X2R-T for the C348T background) (Rattus norvegicus, UniProt P49653, C348T/S345C).
T9 construct: gene P2rx2; full-length, C-terminal FLAG tag (DYKDDDDK), transiently expressed in HEK293 cells with EGFP; homotrimer; monomer about 62 kDa on SDS-PAGE; all point mutants made on the C348T (rP2X2R-T) background
T9 sequence (P49653 1-472 S345C/C348T): T1 sequence (P49653 1-472 F44C/C348T) with C44F, S345C
Source text: as §1

Turning to `Nc1ncnc2c1ncn2[C@@H]1O[C@H](COP(=O)(O)OP(=O)(O)OP(=O)(O)O)[C@@H](O)[C@H]1O` [ATP], the EC50 in assay [1] turned out to be 0.81 ± 0.1 µM; in assay [2], 4.2 ± 0.6 µM; in assay [3], 35.7 ± 0.5 µM; in assay [4] it was 2.3 ± 0.5 µM; in assay [5], 7.3 ± 1.1 µM; in assay [6] it was 0.4 ± 0.1 µM. For the same molecule, the EC50 is 17.8 ± 2 µM in [7], 12.1 ± 0.7 µM in assay [8] and 6.3 ± 0.9 µM in assay [9].
